Results from US20070004636A1, “Method of degrading transcriptional factors of saccharometabolism-associated gene, method for inhibiting the degradation, and agent for inhibiting degradation and degradation inhibitor” (priority 2002, published 2007).

How the values were obtained:
Format in all cases: cell-based
human HNF-1α = experiment: intracellular HNF-1α degradation test by adding calcium ionophore, HEK293T cells; settings: 10 μg/mL, 4 hours
Protocol: After culturing a total number of 0.8×10^6 HEK293T cells for 5 hours at 37° C. under the presence of 5% CO2 (Petri dish with 60 mm diameter), 2 μg of an HNF-1α expression plasmid (see Example 7) was transfected thereto using the FuGENE 6 Transfection Reagent. After two days of culturing, the culture medium was replaced with a medium containing 10 μg/mL of ionophore A23187 (Sigma Chemical Co.) and 0.2% DMSO, and then the culturing was continued for 4 hours. For a negative control group, the culture medium was replaced with a medium containing 0.2% DMSO. After culturing for the pre-determined time, the cells were washed with cold PBS (−), suspended in 350 μl of hypotonic cell lysis buffer, and then left to stand on ice for 20 mins. The cells were disrupted with a homogenizer, and then centrifuged at 4° C. for 10 minutes at 600 g to collect the resulting supernatant as a cytoplasmic fraction and the precipitation as a nuclear fraction. The nuclear fraction was further suspended in solution comprising 2×PBS/1% Nonidet P-40/0.1% SDS, and disrupted by ultrasonication. The protein concentration of cell fractions was determined with Coomassie Plus Protein Assay Reagent Kit (Pierce Chemical Corp.). Each of the prepared samples was added to an equal volume of 2×SDS sample buffer, heated for 5 minutes, and then subjected to 5-20% SDS-PAGE for separation. […]

human HNF-4α = experiment: intracellular HNF-4α degradation test by adding calcium ionophore, HEK293T cells; settings: 10 μg/mL, 3 hours, nuclear and cytoplasmic fraction
Protocol: After culturing a total number of 0.7×10^6 HEK293T cells for 22 hours at 37° C. under the presence of 5% CO2 (Petri dish with 60 mm diameter), 2 μg of HNF-4α expression plasmid (see Example 2) was transfected thereto using the FuGENE 6 Transfection Reagent. After two days of culturing, the culture medium was replaced with a medium that contained 10 μg/mL of ionophore A23187 (4-bromo-calcium ionophore A23187, Sigma Chemical Co.), and the culturing was continued for 3 hours. For a negative control group, the culture medium was replaced with a medium to which dimethylsulfoxide (DMSO) was added instead of the ionophore. After culturing for the pre-determined time, the cells were washed with cold PBS (−), suspended in 300 μl of hypotonic cell lysis buffer (10 mM HEPES, pH 7.5/10 mM MgCl2/42 mM KCl/1 mM PMSF), and left to stand on ice for 20 mins. The cells were disrupted with a homogenizer, and then centrifuged at 4° C. for 10 minutes at 600 g, to collect the resulting supernatant as a cytoplasmic fraction and the precipitation as a nuclear fraction. The nuclear fraction was further suspended in solution comprising 2×PBS/1% Nonidet P-40/0.1% SDS, and disrupted by ultrasonication. An equal volume of 2×SDS sample buffer was added thereto, heated for 5 minutes, and then subjected to 5-20% SDS-PAGE for separation. Detection of HNF-4α was conducted by the same method as in Example 4.

human IPF-1 = experiment: intracellular IPF-1 degradation test by adding calcium ionophore, HEK293T cells; settings: 10 μg/mL, 4 hours
Protocol: After culturing a total number of 0.5×10^6 HEK293T cells for 24 hours at 37° C. under the presence of 5% CO2 (Petri dish with 60 mm diameter), 2 μg of IPF-1 expression plasmid (see Example 10) was transfected thereto using the FuGENE 6 Transfection Reagent. After two days of culturing, the culture medium was replaced with a medium containing 10 μg/mL of ionophore A23187 (Sigma Chemical Co.), and the culturing was continued for further 4 hours. For a negative control group, the culture medium was replaced with a medium containing 0.2% DMSO. After culturing for the pre-determined time, the cells were washed with cold PBS (−), suspended in 350 μl of hypotonic cell lysis buffer, and then left to stand on ice for 20 mins. The cells were disrupted with a homogenizer, and then centrifuged at 4° C. for 10 minutes at 600 g to collect the supernatant as a cytoplasmic fraction and the precipitation as a nuclear fraction. The nuclear fraction was further suspended in solution comprising 2×PBS/1% Nonidet P40/0.1% SDS, and disrupted by ultrasonication. The nuclear fraction and cell fraction were added to an equal volume of 2×SDS sample buffer, heated for 5 minutes, and then subjected to 5-20% SDS-PAGE for separation. Detection of IPF-1 was conducted by the same method as in Example 10.

4-bromo-calcium ionophore A23187
observed: degradation of HNF-1α by addition of ionophore (human HNF-1α) | degradation of HNF-4α by adding ionophore (human HNF-4α) | degradation of IPF-1 by addition of ionophore (human IPF-1)
